In patent US20140171510A1, “HO[…] AND/OR CONJUGATES OF AMPHETAMINE AND OTHER […] PROCESSES FOR MAKING AND USING THE SAME” (priority 2011, published 2014):

Assays:
[1] = Single-dose crossover oral PK study of hArg-Amp-2HCl and Lys-Amp in humans (Example 10); settings: for AUC0-24 h of d-amphetamine: fasted, Vyvanse 30 mg (d-amphetamine equivalent dosages); for plasma concentrations of intact prodrug: 25 mg hArg-Amp-2HCl or same molar dose, lower limit of quantitation 1.00 ng/mL
[2] = pH of the prodrug in deionized water at various concentrations; format: physicochemical
From the text: In a preferred embodiment, the homoarginine amphetamine prodrug comprises a dihydrochloride salt of homoarginine amphetamine. The pH of this prodrug in deionized water at various concentrations is as follows: […]

[3] = Oral PK of hArg-Amp-2HCl and Lys-Amp in rats (Example 9); settings: for AUC0-24 h of d-amphetamine: equimolar doses (hArg-Amp-2HCl […], Lys-Amp 5.05 mg/kg)
[4] = Parenteral (intranasal, intravenous) administration in rats, release of amphetamine (Example 1); settings: parental routes (intranasal, intravenous)
[5] = Average results of oral studies in rats (Table 3); format: in vivo; settings: for % Tmax: average of oral studies in rats, relative to Lys-Amp
[6] = Intranasal study in rats, plasma d-amphetamine by ELISA (Example 7); settings: for % Tmax: relative to d-amp
[7] = Intravenous study in rats, plasma d-amphetamine by ELISA (Example 8); settings: for Tmax: d-amphetamine in plasma, […] equivalent; for % Tmax: relative to d-amp
[8] = Oral gavage PK study of hArg-Amp vs Lys-Amp in rats, plasma d-amphetamine by ELISA (Example 6); settings: relative to Lys-Amp
[9] = Oral PK of hArg-Amp-2HCl and Lys-Amp in dogs (Example 9)
[10] = oral solution, hArg-Amp-2HCl 25 mg
[11] = oral solution, hArg-Amp-2HCl 25 mg, Vyvanse 30 mg
[12] = oral solution, equimolar doses (4.20 and 5.05 mg/kg)
[13] = equimolar doses (1.5 and 1.8 mg/kg)

Compound: C[C@@H](Cc1ccccc1)NC(=O)[C@@H](N)CCCCN=C(N)N.Cl.Cl [hArg-Amp-2HCl, l-homoarginine-d-amphetamine dihydrochloride]
- AUC0-24 h of d-amphetamine [1, 10]: 282.7 ng·h/mL
- Tmax of d-amphetamine, hArg-Amp-2HCl/Lys-Amp ([1]; oral): 110.5%
- Tmax of intact prodrug, hArg-Amp-2HCl/Lys-Amp ([1]; oral): 0%
- Cmax of d-amphetamine [1, 11]: 20.7 ng/mL
- Tmax of intact prodrug [1, 11]: 0 min
- pH ([2]; 0.1 mg/mL (0.3 mM) in deionized water): 6.15 ± 0.1
- pH ([2]; 1.0 mg/mL ([…]) in deionized water): 5.40 ± 0.1
- pH ([2]; 10 mg/mL (26.4 mM) in deionized water): 4.35 ± 0.1
- pH ([2]; 100 mg/mL (264.3 mM) in deionized water): 3.30 ± 0.1
- Tmax of d-amphetamine, hArg-Amp-2HCl/Lys-Amp ([3]; oral): 150.0%
- Tmax of intact prodrug, hArg-Amp-2HCl/Lys-Amp ([3]; oral): 100.0%^
- AUC0-24 h of intact prodrug [3, 12]: 1.8 ng·h/mL
- Cmax of d-amphetamine [3, 12]: 43.2 ng/mL
- Cmax of intact prodrug [3, 12]: 3.1 ng/mL
- Tmax of intact prodrug [3, 12]: 15 min
- AUC0-24 h of d-amphetamine ([3]; oral solution): 447.2 ng·h/mL

Compound: l-homoarginine-d-amphetamine [hArg-Amp]
- Tmax of d-amphetamine [1, 11]: approximately three hours
- plasma concentrations of intact prodrug ([1]; oral, listed as homoarginine amphetamine prodrug): ≤ 1.00 ng/mL
- plasma concentrations of intact prodrug ([1]; oral, listed as homoarginine-amphetamine prodrug): below the detectable limit
- period over which amphetamine is eliminated after the maximum plasma concentration ([1]; single oral dose of 25 mg): about 45 hours
- release of amphetamine [4]: < 25%
- Tmax ([5]; average of oral studies in rats (n = 30 per compound)): 120 to 240 min
- % Tmax [5]: 200-400%
- % Tmax [6]: 600%
- Tmax [7]: 5 m
- % Tmax [7]: 100%
- % Tmax [8]: 133%

Compound: C[C@H](N)Cc1ccccc1 [d-amp, d-amphetamine]
- Tmax ([6]; d-amphetamine in plasma, […] equivalent, given in minutes): 5 m
- % Tmax [6]: 100%
- Tmax [7]: 5 m
- % Tmax [7]: 100%

Compound: l-lysine-d-amphetamine [Lys-Amp, reference compound]
- AUC0-24 h of d-amphetamine [1, 10]: 421.9 ng·h/mL
- AUC0-24 h of intact prodrug [1, 11]: 19.4 ng·h/mL
- Cmax of d-amphetamine [1, 11]: 30.0 ng/mL
- Cmax of intact prodrug [1, 11]: 18.1 ng/mL
- Tmax of intact prodrug [1, 11]: 36.6 min
- % Tmax [5]: 100%
- AUC0-24 h of intact prodrug [9, 13]: 285.8 ng·h/mL
- Cmax of d-amphetamine [9, 13]: 95.4 ng/mL
- Cmax of intact prodrug [9, 13]: 305.5 ng/mL
- AUC0-24 h of d-amphetamine ([9]; equimolar doses (hArg-Amp-2HCl […], Lys-Amp 1.8 mg/kg)): 775.0 ng·h/mL
- % Tmax [6]: 3600%
- % Tmax [7]: 100%
- % Tmax [8]: 100%
- AUC0-24 h of intact prodrug [3, 12]: 74.9 ng·h/mL
- Cmax of d-amphetamine [3, 12]: 71.5 ng/mL
- Cmax of intact prodrug [3, 12]: 90.2 ng/mL
- AUC0-24 h of d-amphetamine ([3]; oral solution): 596.4 ng·h/mL
